Test results: patent US8143403B2 (Bristol-Myers Squibb Company, priority 2008, dated 2012)
Marks after values point to notes of the source that are not given here. No end group written: not given here.

Columns and labels:
Human CGRP Receptor = biological target: T1, Human CGRP Receptor (Homo sapiens, UniProt O60894+Q16602); experiment: Radioligand binding assay, [125I]-CGRP displacement on SK-N-MC membranes; settings: displacement of [125I]-CGRP (18 pM final), 2 h room temperature
T1 construct: Crude membranes were prepared from SK-N-MC cells expressing CGRP receptors; endogenous in cells; host or cells: SK-N-MC cells (crude membranes)
T1 sequence (Q16602 23-461): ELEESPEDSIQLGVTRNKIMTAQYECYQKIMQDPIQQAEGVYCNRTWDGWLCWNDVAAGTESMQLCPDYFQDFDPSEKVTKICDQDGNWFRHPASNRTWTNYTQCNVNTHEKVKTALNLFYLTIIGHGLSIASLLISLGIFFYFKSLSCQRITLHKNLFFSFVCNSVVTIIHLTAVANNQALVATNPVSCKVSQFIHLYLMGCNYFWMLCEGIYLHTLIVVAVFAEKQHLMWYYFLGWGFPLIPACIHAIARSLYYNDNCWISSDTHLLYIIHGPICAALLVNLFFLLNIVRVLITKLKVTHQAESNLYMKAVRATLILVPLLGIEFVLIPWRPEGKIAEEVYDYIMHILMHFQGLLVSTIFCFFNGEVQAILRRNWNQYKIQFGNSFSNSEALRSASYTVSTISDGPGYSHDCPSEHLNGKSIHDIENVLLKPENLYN
T1 sequence (O60894 27-148): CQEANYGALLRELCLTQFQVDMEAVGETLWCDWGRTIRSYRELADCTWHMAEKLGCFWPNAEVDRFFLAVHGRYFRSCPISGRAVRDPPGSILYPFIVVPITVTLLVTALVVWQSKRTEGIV
Procedure: Tissue Culture. SK-N-MC cells were grown at 37° C. in 5% CO2 as a monolayer in medium consisting of MEM with Earle's salts and L-glutamine (Invitrogen) supplemented with 10% fetal bovine serum (Invitrogen).
Membrane Preparation. Crude membranes were prepared from SK-N-MC cells expressing CGRP receptors. The cells were rinsed twice with phosphate-buffered saline (155 mM NaCl, 3.3 mM Na2HPO4, 1.1 mM KH2PO4, pH 7.4), and incubated for 5-10 min. at 4° C. in hypotonic lysis buffer consisting of 10 mM Tris (pH 7.4) and 5 mM EDTA. The cells were transferred from plates to polypropylene tubes (16×100 mm) and homogenized using a polytron. Homogenates were centrifuged at 32,000×g for 30 min. The pellets were resuspended in cold hypotonic lysis buffer with 0.1% mammalian protease inhibitor cocktail (Sigma) and assayed for protein concentration. The SK-N-MC homogenate was aliquoted and stored at −80° C. Radioligand Binding Assay. The compounds of invention were solubilized and carried through serial dilutions using 100% DMSO. Aliquots from the compound serial dilutions were further diluted 25 fold into assay buffer (50 mM Tris-Cl pH 7.5, 5 mM MgCl2, 0.005% Triton X-100) and transferred (volume 50 μl) into 96 well assay plates. [^125I]-CGRP (GE Healthcare or Perkin-Elmer) was diluted to 72 pM in assay buffer and a volume of 50 μl was added to each well. SK-N-MC membranes were thawed, diluted in assay buffer with fresh 0.1% mammalian protease inhibitor cocktail (Sigma), and re-homogenized. SK-N-MC homogenate (7 μg/well) was added in a volume of 100 μl. The assay plates were then incubated at room temperature for 2 h. Assays were stopped by addition of excess cold wash buffer (50 mM Tris-Cl pH 7.5, 0.1% BSA) immediately followed by filtration over glass fiber filters (Whatman GF/B) previously soaked in 0.5% PEI. Non-specific binding was defined with 1 μM beta-CGRP (Bachem). Protein bound radioactivity was determined using a gamma or scintillation counter. The resulting data was analyzed using a four parameter competitive binding equation (XLfit v2.0) and the IC50 was defined as the concentration of a compound of invention required to displace 50% of radioligand binding. Final assay concentration of [^125I]-CGRP was 18 pM. […] All compounds of invention were evaluated in at least two separate experiments.

[1] = system: CGRP-induced increase in laser Doppler facial blood flow; experiment: Inhibition of CGRP-induced increase in laser Doppler facial blood flow in non-human primate; type: in vivo, common marmoset (Callithrix jacchus)
Procedure: FIG. 4. […] Data are peak % change from baseline±sem, with each animal serving as its own control.
Saturation/Scatchard Analysis. […] Saturation data were analyzed using a one site binding equation to estimate apparent equilibrium dissociation constant (Kd) and the maximum number of binding sites (Bmax) (Prizm v4.0, Graphpad). […] Functional Antagonism/Schild analysis. Agonist stimulation of CGRP receptor complex leads to cyclic AMP (adenosine 3′5′-cyclic monophosphate) production via Gs-dependent activation of an adenylate cyclase (Juaneda C et al., TiPS, 2000; 21:432-438). Consequently, CGRP receptor antagonists inhibit CGRP-induced cyclic AMP formation in SK-N-MC cells which natively express the CGRP receptor complex (Doods H et al., Br J Pharmacol, 2000; 129(3):420-423). […] A Schild analysis format was used, which allowed investigation of the mechanism of antagonism. […] Various concentrations of CGRP were added and the cells were allowed to incubate 30 min at room temperature. The cells were lysed with lysis reagent and cAMP concentrations were determined by HTRF according to the manufacturer's instructions. A standard curve using known quantities of cAMP was evaluated in parallel to allow conversion of HTRF ratio to nM cAMP. The resulting curves were then evaluated using a Gaddum/Schild equation individually and with global fitting (Prizm v4.0, Graphpad). […] To obtain a global fit the following parameters were shared (top, bottom, logEC50, Hill slope and pA2) and all curves were fit simultaneously. […] Non-Terminal Method for Assessing In Vivo Efficacy of Small Molecule CGRP-Receptor Antagonists in Mammals Overview. […] Non-human primates (e.g., marmosets) are the only animals known to have human-like CGRP receptor pharmacology conferred by the presence of the specific amino acid residue (Trp74) in their RAMP1 sequence which is responsible for the phenotype of the human receptor (Mallee et al. J Biol Chem 2002 277:14294). Since current migraine models primarily use rats (Escott et al. Brain Res 1995 669:93; Williamson et al. Cephalalgia 1997 17:525), or are invasive, terminal procedures in primates (Doods et al. Br J Pharmacol 2000 129:420), a novel non-invasive, survival model in non-human primates for in vivo efficacy assessment of CGRP-receptor antagonists was developed. […] Peptide and small-molecule CGRP-receptor antagonists were used to validate the non-human primate model. […] Animals. Adult male and female common marmosets (Callithrix jacchus) purchased from Harlan and weighing 350-550 g served as subjects. Anesthesia & Surgical Preparation. Animals are anesthetized by isoflurane inhalation in an induction chamber (4-5% rapid induction, maintained with 1-2.5%; Solomon et al., 1999).

[2] = system: i.v. hαCGRP-induced increase in middle meningeal artery diameter and facial blood flow; experiment: Validation of facial blood flow as surrogate for intracranial artery dilation in the rat; type: in vivo; settings: pretreatment, n=5 rats

IC50 (Human CGRP Receptor)	Compound	further results
8.89 nM	O=C(O[C@@H]1CC[C@@H](c2ccccc2)Cc2cccnc21)N1CCC(n2c(=O)[nH]c3ncccc32)CC1 (relative stereo) [Example 10, (6,9-Trans)-6-Phenyl-6,7,8,9-tetrahydro-5H-cyclohepta[b]pyridin-9-yl 4-(2-oxo-2,3-dihydro-1H-imidazo[4,5-b]pyridin-1-yl)piperidine-1-carboxylate]	–
4.14 nM	O=C(O[C@@H]1CC[C@@H](c2cc(F)ccc2F)Cc2cccnc21)N1CCC(n2c(=O)[nH]c3ncccc32)CC1 (racemic) [Example 11, (6,9-trans)-6-(2,5-Difluorophenyl)-6,7,8,9-tetrahydro-5H-cyclohepta[b]pyridin-9-yl 4-(2-oxo-2,3-dihydro-1H-imidazo[4,5-b]pyridin-1-yl)piperidine-1-carboxylate]	–
6.96 nM	CC(C)(C)Nc1ccc2c(n1)[C@H](OC(=O)N1CCC(n3c(=O)[nH]c4ncccc43)CC1)CC[C@@H](c1cccc(F)c1F)C2 [Example 16, (6R,9R)-2-(tert-Butylamino)-6-(2,3-difluorophenyl)-6,7,8,9-tetrahydro-5H-cyclohepta[b]pyridin-9-yl 4-(2-oxo-2,3-dihydro-1H-imidazo[4,5-b]pyridin-1-yl)piperidine-1-carboxylate]	–
> 100 nM	O=C(C[C@H]1CC[C@H](c2cccc(F)c2F)Cc2cccnc21)N1CCC(n2c(=O)[nH]c3ncccc32)CC1 (single isomer, unassigned) [Example 7]	–
4.04 nM	O=C(C[C@@H]1CC[C@H](c2cccc(F)c2F)Cc2cccnc21)N1CCC(n2c(=O)[nH]c3ncccc32)CC1 (relative stereo) [Example 5, 1-(1-(2-((6,9-Cis)-6-(2,3-difluorophenyl)-6,7,8,9-tetrahydro-5H-cyclohepta[b]pyridin-9-yl)acetyl)piperidin-4-yl)-1H-imidazo[4,5-b]pyridin-2(3H)-one]	–
–	haCGRP(8-37): peptide antagonist, peptide fragment CGRP(8-37) (VTHRLAGLLSRSGGVVKNNFVPTNVGSKAF; ends and bridges not checked; UniProt P06881 90-119, looked up, fragment) [reference compound]	% Inhibition ([1]; 1 mg/kg i.v., pretreat 0 min, 15 min, hαCGRP 10 μg/kg i.v.): 87.2* %; inhibition of i.v. CGRP-stimulated increases in primate facial blood flow ([1]; pre-treatment): dose-dependently inhibited; inhibition of i.v. hαCGRP-induced increase in facial blood flow [2]: 50%; inhibition of i.v. hαCGRP-induced increase in middle meningeal artery diameter [2]: 50%
> 1000 nM	O=C(N[C@H]1CC[C@H](c2cccc(F)c2F)Cc2cccnc21)N1CCC(n2c(=O)[nH]c3ncccc32)CC1 [Example 9, N-((6S,9S)-6-(2,3-difluorophenyl)-6,7,8,9-tetrahydro-5H-cyclohepta[b]pyridin-9-yl)-4-(2-oxo-2,3-dihydro-1H-imidazo[4,5-b]pyridin-1-yl)piperidine-1-carboxamide]	–
0.25 nM	Nc1cnc2c(c1)C[C@H](c1cccc(F)c1F)CC[C@H]2NC(=O)N1CCC(n2c(=O)[nH]c3ncccc32)CC1 [Example 14, N-((6R,9R)-3-amino-6-(2,3-difluorophenyl)-6,7,8,9-tetrahydro-5H-cyclohepta[b]pyridin-9-yl)-4-(2-oxo-2,3-dihydro-1H-imidazo[4,5-b]pyridin-1-yl)piperidine-1-carboxamide]	–
0.8 nM	Nc1ccc2c(n1)[C@H](OC(=O)N1CCC(n3c(=O)[nH]c4ncccc43)CC1)CC[C@@H](c1cccc(F)c1F)C2 [Example 17, (6R,9R)-2-Amino-6-(2,3-difluorophenyl)-6,7,8,9-tetrahydro-5H-cyclohepta[b]pyridin-9-yl 4-(2-oxo-2,3-dihydro-1H-imidazo[4,5-b]pyridin-1-yl)piperidine-1-carboxylate]	–
